The source of these data is ChEMBL document CHEMBL3351333, “Structural analysis of a novel small molecule ligand bound to the CXCL12 chemokine” (J Med Chem, 2014).

In this test the target is Stromal cell-derived factor 1 (Homo sapiens) (UniProt P48061). The test is described as follows: Binding affinity to CXCL12 in human THP1 cells assessed as inhibition of CXCL12-induced cell migration at 25 uM incubated for 2 hrs by flow cytometry based chemotaxis assay. The note with it: THP-1. A general note: A flow cytometer gives signals particle by particle.
Stromal cell-derived factor 1 (Homo sapiens), sequence (P48061 whole entry): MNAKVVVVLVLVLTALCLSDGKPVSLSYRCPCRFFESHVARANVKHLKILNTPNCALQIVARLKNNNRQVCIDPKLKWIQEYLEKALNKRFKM

As a reminder, the inhibition is how much of the control response was suppressed. As for `O=C(Nc1ccccc1)Nc1ccc(-c2nnn[nH]2)cc1`, the inhibition worked out at 20%.

`O=C(NCCc1ccccc1)Nc1ccc(-c2nnn[nH]2)cc1`: the inhibition turned out to be 40%.
